From patent US8106055B2, “Substituted amide compounds” (Gruenenthal GmbH, priority 2007, dated 2012)

Tests used:
[1] = target: T1, bradykinin 1 receptor (B1R) of the rat (Rattus norvegicus, UniProt P97583); test: Functional investigation on the rat bradykinin 1 receptor (B1R), Ca2+ FLIPR assay in CHO K1 rB1R cells; type: cell-based; details: B1R antagonism rat; test substance 10 μM; Ca2+ FLIPR, CHO K1 rB1R cells
T1 construct: expressed in transfected cells; host or cells: CHO K1 cells
T1 sequence (P97583 1-337): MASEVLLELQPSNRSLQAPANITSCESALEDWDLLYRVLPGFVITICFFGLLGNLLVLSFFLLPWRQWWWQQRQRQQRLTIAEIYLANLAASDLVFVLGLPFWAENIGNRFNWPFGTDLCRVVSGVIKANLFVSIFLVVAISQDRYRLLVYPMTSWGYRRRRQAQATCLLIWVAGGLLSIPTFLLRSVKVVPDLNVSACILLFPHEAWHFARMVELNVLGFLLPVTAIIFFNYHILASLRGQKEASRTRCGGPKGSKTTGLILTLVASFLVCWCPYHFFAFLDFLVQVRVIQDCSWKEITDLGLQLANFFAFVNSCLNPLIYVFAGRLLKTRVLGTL
Summary of the method: (§1)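 Fluo-4 Ca2+ readout, peak fluorescence. Stable CHO K1 transfectants; compound pre-incubated 10-20 min, then EC80 agonist—Lys-Des-Arg9-BK for hB1R, Des-Arg9-BK for rB1R. % inhibition vs maximal inhibition; IC50 from multiple concentrations, duplicate/triplicate, ≥2 independent runs.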

[2] = target: T2, human bradykinin 1 receptor (B1R) (Homo sapiens, UniProt P46663); test: Functional investigation on the human bradykinin 1 receptor (B1R), Ca2+ FLIPR assay in CHO K1 hB1R cells; type: cell-based; details: B1R antagonism human; test substance 10 μM; Ca2+ FLIPR, CHO K1 hB1R cells
T2 construct: expressed in transfected cells; host or cells: CHO K1 cells
T2 sequence (P46663 1-353): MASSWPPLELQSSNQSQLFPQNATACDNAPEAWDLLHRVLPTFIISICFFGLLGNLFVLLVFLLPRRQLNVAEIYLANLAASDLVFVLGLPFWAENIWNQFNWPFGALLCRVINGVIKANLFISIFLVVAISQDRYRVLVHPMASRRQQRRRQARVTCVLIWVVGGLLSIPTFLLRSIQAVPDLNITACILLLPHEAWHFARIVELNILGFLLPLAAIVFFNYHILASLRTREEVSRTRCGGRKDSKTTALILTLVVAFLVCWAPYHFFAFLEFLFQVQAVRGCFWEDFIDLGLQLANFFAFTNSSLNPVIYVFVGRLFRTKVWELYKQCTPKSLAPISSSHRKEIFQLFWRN
Summary of the method: as §1

Compound	B1R Ant. r [10 μM] % Inhibition [1]	B1R Ant. h [10 μM] % Inhibition [2]
COc1cc(C)c(S(=O)(=O)N2CCC(OCC(=O)NCC3CCC(C(c4ccc(F)cc4)N(C)C)CC3)C2)c(C)c1 (stereo not drawn) [Example 541]	104%	100%
COc1cc(C)c(S(=O)(=O)N(CCOCC(=O)NC2CCC(C(c3ccc(F)cc3)N(C)C)CC2)Cc2ccccc2)c(C)c1C (stereo not drawn) [Example 523]	26%	50%
Cc1ccc(S(=O)(=O)N(C)CCOCC(=O)NCCC2CCC(C(c3ccc(F)cc3)N(C)C)CC2)cc1 (stereo not drawn) [Example 457]	11%	14%
CN(C)C(c1ccc(F)cc1)C1CCC(CCNC(=O)COCCN2CCN(S(=O)(=O)c3ccccc3)CC2)CC1 (stereo not drawn) [Example 493]	4%	−13%
COc1cc(C)c(S(=O)(=O)N2CCC(CCOCC(=O)NCC3CCC(C(c4ccc(F)cc4)N(C)C)CC3)CC2)c(C)c1C (stereo not drawn) [Example 481]	49%	9%
CCN(CCOCC(=O)NCC1CCC(C(CCc2ccccc2)N(C)C)CC1)S(=O)(=O)c1c(C)cc(OC)c(C)c1C (stereo not drawn) [Example 536]	95%	105%
COc1cc(C)c(S(=O)(=O)N2CCC(OCC(=O)NCCC3CCC(C(c4ccc(Cl)cc4)N(C)C)CC3)CC2)c(C)c1C (stereo not drawn) [Example 472]	26%	1%
CN(C)C(c1ccc(F)cc1)C1CCC(CNC(=O)COC2CCN(S(=O)(=O)c3ccccc3)C2)CC1 (stereo not drawn) [Example 532]	−14%	5%
COc1cc(C)c(S(=O)(=O)N2CCC(OCC(=O)NCCC3CCC(C(c4ccc(Cl)cc4)N(C)C)CC3)C2)c(C)c1 (stereo not drawn) [Example 492]	78%	105%
COc1ccc(S(=O)(=O)N(C)CCOCC(=O)NCCC2CCC(C(c3ccc(Cl)cc3)N(C)C)CC2)cc1 (stereo not drawn) [Example 460]	71%	50%
CN(C)C(CCc1ccccc1)C1CCC(CNC(=O)COCCN(C)S(=O)(=O)c2ccc(F)cc2)CC1 (stereo not drawn) [Example 539]	32%	27%
CN(C)C(c1ccc(F)cc1)C1CCC(CCNC(=O)COC2CCN(S(=O)(=O)c3ccc(F)cc3)C2)CC1 (stereo not drawn) [Example 518]	26%	−2%
COc1ccc(S(=O)(=O)N(C)CCOCC(=O)NCC2CCC(C(c3ccc(F)cc3)N(C)C)CC2)cc1 (stereo not drawn) [Example 508]	42%	46%
CN(C)C(c1ccc(Cl)cc1)C1CCC(CCNC(=O)COCCC2CCN(S(=O)(=O)c3ccccc3)CC2)CC1 (stereo not drawn) [Example 531]	−1%	2%
COc1cc(C)c(S(=O)(=O)N(CCOCC(=O)NCC2CCC(C(CCc3ccccc3)N(C)C)CC2)Cc2ccccc2)c(C)c1 (stereo not drawn) [Example 542]	45%	103%
CN(C)C(c1ccc(Cl)cc1)C1CCC(CNC(=O)COCCN(C)S(=O)(=O)c2ccc(Cl)cc2Cl)CC1 (stereo not drawn) [Example 459]	26%	29%
COc1cc(C)c(S(=O)(=O)N(CCOCC(=O)NCC2CCC(C(c3ccc(F)cc3)N(C)C)CC2)Cc2ccccc2)c(C)c1 (stereo not drawn) [Example 494]	36%	86%
COc1ccc(S(=O)(=O)N2CCCCC2COCC(=O)NCCC2CCC(C(c3ccc(Cl)cc3)N(C)C)CC2)cc1OC (stereo not drawn) [Example 540]	19%	−19%
CN(C)C(c1ccc(F)cc1)C1CCC(CCNC(=O)COC2CCN(S(=O)(=O)c3ccc(Cl)cc3)C2)CC1 (stereo not drawn) [Example 464]	−6%	−2%
CN(C)C(CCc1ccccc1)C1CCC(CNC(=O)COC2CCN(S(=O)(=O)c3ccc(Cl)cc3Cl)C2)CC1 (stereo not drawn) [Example 496]	35%	98%
Cc1cc(C)c(S(=O)(=O)N(C)CCOCC(=O)NC2CCC(C(c3ccc(F)cc3)N(C)C)CC2)c(C)c1 (stereo not drawn) [Example 490]	12%	45%

Compound	B1R Ant. r [10 μM] % Inhibition [1]	B1R Ant. h [10 μM] % Inhibition [2]
CN(C)C(c1ccc(F)cc1)C1CCC(CNC(=O)COC2CCN(S(=O)(=O)c3ccc(Cl)cc3)C2)CC1 (stereo not drawn) [Example 517]	38%	−13%
COc1ccc(S(=O)(=O)N2CCCCC2COCC(=O)NCCC2CCC(C(c3ccc(F)cc3)N(C)C)CC2)c(OC)c1 (stereo not drawn) [Example 500]	23%	3%
CN(C)C(c1ccc(F)cc1)C1CCC(CCNC(=O)COCCN(C)S(=O)(=O)c2ccc(F)cc2)CC1 (stereo not drawn) [Example 487]	9%	9%
CN(C)C(c1ccc(F)cc1)C1CCC(CCNC(=O)COC2CCN(S(=O)(=O)c3cccc(C(F)(F)F)c3)C2)CC1 (stereo not drawn) [Example 466]	22%	7%
COc1ccc(S(=O)(=O)N2CCC(OCC(=O)NCC3CCC(C(c4ccc(F)cc4)N(C)C)CC3)C2)cc1OC (stereo not drawn) [Example 497]	17%	−4%
Cc1cc(C)c(S(=O)(=O)N2CCC(OCC(=O)NCCC3CCC(C(c4ccc(Cl)cc4)N(C)C)CC3)C2)c(C)c1 (stereo not drawn) [Example 506]	23%	83%
COc1ccc(S(=O)(=O)N2CCCC2COCC(=O)NC2CCC(C(c3ccc(F)cc3)N(C)C)CC2)cc1 (stereo not drawn) [Example 461]	20%	13%
CN(C)C(c1ccc(F)cc1)C1CCC(CCNC(=O)COC2CCCN(S(=O)(=O)c3ccccc3)C2)CC1 (stereo not drawn) [Example 520]	24%	−4%
CN(C)C(CCc1ccccc1)C1CCC(CNC(=O)COCCN(C)S(=O)(=O)c2c(Cl)cc(Cl)cc2Cl)CC1 (stereo not drawn) [Example 515]	54%	101%
COc1cc(C)c(S(=O)(=O)N2CCC(OCC(=O)NCCC3CCC(C(c4ccc(F)cc4)N(C)C)CC3)C2)c(C)c1 (stereo not drawn) [Example 509]	94%	104%
COc1cc(C)c(S(=O)(=O)N(CCOCC(=O)NC2CCC(C(c3ccc(F)cc3)N(C)C)CC2)Cc2ccccc2)c(C)c1 (stereo not drawn) [Example 504]	48%	69%
COc1cc(C)c(S(=O)(=O)N(C)CCOCC(=O)NCC2CCC(C(c3ccc(F)cc3)N(C)C)CC2)c(C)c1 (stereo not drawn) [Example 458]	104%	103%
Cc1ccc(S(=O)(=O)N2CCC(OCC(=O)NCC3CCC(C(CCc4ccccc4)N(C)C)CC3)C2)cc1 (stereo not drawn) [Example 538]	5%	7%
COc1cc(C)c(S(=O)(=O)N2CCC(CCOCC(=O)NCC3CCC(C(CCc4ccccc4)N(C)C)CC3)CC2)c(C)c1C (stereo not drawn) [Example 521]	11%	66%
CN(C)C(c1ccc(F)cc1)C1CCC(NC(=O)COC2CCN(S(=O)(=O)c3ccccc3)C2)CC1 (stereo not drawn) [Example 463]	17%	−7%
COc1cc(C)c(S(=O)(=O)N2CCC(OCC(=O)NCCC3CCC(C(c4ccc(F)cc4)N(C)C)CC3)C2)c(C)c1C (stereo not drawn) [Example 467]	47%	67%
COc1ccc(S(=O)(=O)N2CCCCC2COCC(=O)NCCC2CCC(C(c3ccc(Cl)cc3)N(C)C)CC2)c(OC)c1 (stereo not drawn) [Example 474]	10%	17%
CN(C)C(CCc1ccccc1)C1CCC(CNC(=O)COC2CCCCC2N(C)S(=O)(=O)c2ccc(Cl)c(Cl)c2)CC1 (stereo not drawn) [Example 451]	11%	87%
CN(C)C(c1ccc(F)cc1)C1CCC(CCNC(=O)COC2CCN(S(=O)(=O)c3ccc(Cl)cc3Cl)C2)CC1 (stereo not drawn) [Example 456]	48%	80%
COc1ccc(S(=O)(=O)N2CCCCC2COCC(=O)NCCC2CCC(C(c3ccc(F)cc3)N(C)C)CC2)cc1OC (stereo not drawn) [Example 462]	−13%	−8%
COc1cc(C)c(S(=O)(=O)N2CCC(OCC(=O)NCC3CCC(C(c4ccc(Cl)cc4)N(C)C)CC3)CC2)c(C)c1C (stereo not drawn) [Example 498]	2%	17%
